Consider one molecule from patent publication US20230346948A1, “Lipid conjugated peptide inhibitors of PICK1” (University of Copenhagen, priority 2020, published 2023).

A short description of series [1]: Size exclusion chromatography, self-assembly in solution. The series is classed as physicochemical. The following applies: Superdex200 Increase 10/300. On the procedure: Size exclusion chromatography: Size exclusion chromatography was done using an Äkta purifier with a Superdex200 Increase 10/300 column, where 500 μL of […] or […] at the indicated concentration was injected onto the column. Absorbance profile was measured at 280 nm and plotted against elution volume using Graph Pad Prism 8.3.

Series [2] has as its system thermal hypersensitivity (CFA model). Nature of the series: Hargreaves test, thermal hypersensitivity in CFA model. The series is classed as in vivo, mice. The following applies: s.c. 10 μmol/kg. The method, then: Inflammatory pain (CFA model): Animals were habituated to the experimental room for a minimum of 60 min before initiation of the experiment. Hargreave's test was performed by application of radiant heat light to the plantar surface of both hindpaw. The response latency was measured by an automated readout (Ugo Basile, Italy). The baseline paw withdrawal latency of both hind paws in response to radiant heat stimulation was performed before CFA injection, and no difference between the two pre-selected groups was found. The inflammatory pain was induced by […] of 50 μL undiluted Complete Freund's Adjuvant (CFA) ([…], Sigma) unilaterally into the intraplantar surface of the right hind paw, whereas control mice were injected with the same amount of 0.9% saline (B. Braun, Germany). All intraplantar injections were performed with and insulin needle (0.3 mL BD Micro-Fine) while the animal was under isoflurane anesthesia (2%) for maximum 60 seconds. On day 3 after CFA injection, mice were placed in individual red cylinders (8 cm in diameter, 7.5 cm tall) and thermal hyperalgesia was confirmed by a baseline reading with IR of 20. Three measurements were performed on each hindpaw of each mouse. A positive trial was defined as sudden paw withdrawal, flinching and/or paw licking induced by the infrared light. Measurements were performed before CFA injection, and at 3+4 days after CFA injection. At day 3, the measurements were performed before treatment, as well as 1, 5 and 21 hours after treatment. Peptide and vehicle were administered s.c. (10 μL/g)), and at a concentration of 0 or 10 μmol/kg. Statistical analysis was performed using GraphPad Prism 6.0. Two-way RM ANOVA followed by Bonferroni's post-hoc test. Significance level set to p<0.05.

Another series deals with T1, PICK1 (Rattus norvegicus, UniProt Q9EP80).
T1 construct: Full length rat PICK1 (pET41) was prepared as described earlier; inferred from pET41 vector and Glutathione-Sepharose capture) (N, cleaved yes); made in house; host or cells: E. coli BL21-DE3-pLysS
Nature of the series: Size exclusion chromatography of PICK1 in complex with inhibitor. To be noted: 40 μM PICK1 with 10 μM inhibitor (4:1). On the procedure: Full length rat PICK1 (pET41) was prepared as described earlier (Madsen et al., 2005). In brief, PICK1 was expressed in BL21-DE3-pLysS cells and grown at 37° C., induced at OD600=0.6 with 1 mM Isopropyl β-D-1-thiogalactopyranoside (IPTG) and grown 16 hrs at 20° C. Cultures were harvested and re-suspended in 50 mM trisaminomethane (Tris), 125 mM NaCl, 2 mM Dithiothreitol (DTT, Sigma), 1% Triton X-100 (Sigma), 20 μg/mL DNAse 1 and 1⁄2 a tablet cOmplete protease inhibitor cocktail (Roche) pr. 1 L culture. The re-suspended pellets were frozen at -80° C. for later purification. […] Each column was sealed and 0.075 U/μL, Novagen® was added for cleavage 0/N at 4° C. under gentle rotation. PICK1 was eluted on ice and absorption at 280 nm was measured on TECAN plate reader or on a NanoDrop3000. The protein concentration was determined using lambert beers law (A=ε[…]=32320 (cm*mol/L)^-1. Size exclusion chromatography: Size exclusion chromatography was performed using an Äkta purifier with a Superdex200 Increase 10/300 column, where 500 μL of 40 μM PICK1 in absence or presence of 10 μM […] was loaded to the column. Absorbance profile was measured at 280 nm and plotted against elution volume using Graph Pad Prism 8.3.

T1 sequence (Q9EP80 whole entry): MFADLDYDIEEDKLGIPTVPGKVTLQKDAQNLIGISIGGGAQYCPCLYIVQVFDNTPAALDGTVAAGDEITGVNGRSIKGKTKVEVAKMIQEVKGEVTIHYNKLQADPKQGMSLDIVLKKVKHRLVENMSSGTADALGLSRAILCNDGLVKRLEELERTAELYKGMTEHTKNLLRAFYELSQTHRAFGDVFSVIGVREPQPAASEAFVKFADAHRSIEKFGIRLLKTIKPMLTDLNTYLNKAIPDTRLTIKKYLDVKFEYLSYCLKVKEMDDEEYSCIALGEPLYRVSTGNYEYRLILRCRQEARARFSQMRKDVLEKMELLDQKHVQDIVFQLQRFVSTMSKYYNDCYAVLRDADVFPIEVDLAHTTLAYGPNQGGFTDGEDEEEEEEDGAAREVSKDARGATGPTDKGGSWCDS

As for `CCCCCCCCCCCCCC(=O)N(CCOCCOCCC(=O)N[C@@H](Cc1c[nH]cn1)C(=O)N[C@@H](Cc1c[nH]c2ccccc12)C(=O)N[C@@H](CC(C)C)C(=O)N[C@@H](CCCCN)C(=O)N[C@H](C(=O)O)C(C)C)CCOCCOCCC(=O)N[C@@H](Cc1c[nH]cn1)C(=O)N[C@@H](Cc1c[nH]c2ccccc12)C(=O)N[C@@H](CC(C)C)C(=O)N[C@@H](CCCCN)C(=O)N[C@H](C(=O)O)C(C)C` [myr-NPEG4-(HWLKV)2], the “SEC elution compared with unconjugated NPEG4-(HWLKV)2” value in series [1] was “eluted at lower elution volume”. In addition, the “pain relief (paw withdrawal latency), sensitized paw” value in series [2] (5 hours) is on record as “less pronounced”; in series [2] (following day (21 h)), “fully dissolved”. Moreover, the “paw withdrawal latency, contralateral (healthy) paw” value in series [2] (day 3 after CFA) is “no significant changes”. For the same molecule, in series [2] (day 3 after CFA), the “paw withdrawal latency, sensitized (ipsilateral) paw” value is on record as “highly significant increase in paw withdrawal latency”. For the same molecule, the “oligomeric state of PICK1 upon binding (SEC elution volume)” value on PICK1 was “forms higher order oligomeric structures of PICK1 upon binding”.
